Measured values as given in ChEMBL document CHEMBL3885881, “DrugMatrix”.

Organism: Rattus norvegicus
Assay: DrugMatrix - Regimen: Daily Repeat
Format: toxicity, organism-based, Sprague-Dawley
Set-up: regimen Daily Repeat, gender Male, age 6-8 weeks
Details: in vivo, po, route oral GAVAGE, vehicle .5 % CMC; for ABSOLUTE BASOPHIL / ABSOLUTE EOSINOPHIL / ABSOLUTE LYMPHOCYTE / ABSOLUTE MONOCYTE / ABSOLUTE SEGMENTED NEUTROPHIL / BASOPHIL / EOSINOPHIL / ERYTHROCYTE COUNT / HEMATOCRIT / HEMOGLOBIN / LEUKOCYTE COUNT / LYMPHOCYTE / MEAN CORPUSCULAR HEMOGLOBIN / MEAN CORPUSCULAR HEMOGLOBIN CONCENTRATION / MEAN CORPUSCULAR VOLUME / MONOCYTE / NEUTROPHIL / NUCLEATED RED BLOOD CELLS / PLATELET COUNT: tissue Blood; for ALANINE AMINOTRANSFERASE / ALBUMIN / ALKALINE PHOSPHATASE / ASPARTATE AMINOTRANSFERASE / BLOOD UREA NITROGEN / CARBON DIOXIDE / CHLORIDE / CHOLESTEROL / CREATINE PHOSPHOKINASE / CREATININE / GLUCOSE / LACTATE DEHYDROGENASE / LIPASE / PHOSPHORUS / POTASSIUM / SODIUM / TOTAL BILIRUBIN / TOTAL PROTEIN / URIC ACID: tissue Plasma
[1] = 0 mg/kg, 72 h, dose level Control, time 3 day
[2] = 0 mg/kg, 120 h, dose level Control, time 5 day
[3] = 30 mg/kg, 72 h, dose level Low, time 3 day
[4] = 30 mg/kg, 120 h, dose level Low, time 5 day

COc1cc(OC)c(C(=O)CCCN2CCCC2)c(OC)c1 [BUFLOMEDIL]
ABSOLUTE BASOPHIL [1]: 0 CELLS/uL | ABSOLUTE EOSINOPHIL [1]: 0 CELLS/uL | ABSOLUTE LYMPHOCYTE [1]: 10913.67 CELLS/uL | ABSOLUTE MONOCYTE [1]: 85.33 CELLS/uL | ABSOLUTE SEGMENTED NEUTROPHIL [1]: 1401 CELLS/uL | BASOPHIL [1]: 0% | EOSINOPHIL [1]: 0% | ERYTHROCYTE COUNT [1]: 5.57 x10E6/uL | HEMATOCRIT [1]: 35.58% | HEMOGLOBIN [1]: 13.8 G/DL | LEUKOCYTE COUNT [1]: 12.4 x10E3/uL | LYMPHOCYTE [1]: 88% | MEAN CORPUSCULAR HEMOGLOBIN [1]: 24.78 pg | MEAN CORPUSCULAR HEMOGLOBIN CONCENTRATION [1]: 38.82 G/DL | MEAN CORPUSCULAR VOLUME [1]: 63.88 fL | MONOCYTE [1]: 0.67% | NEUTROPHIL [1]: 11.33% | NUCLEATED RED BLOOD CELLS [1]: 0 /100WBC | PLATELET COUNT [1]: 1162.33 x10E3/uL | ALANINE AMINOTRANSFERASE [1]: 53 u/L | ALBUMIN [1]: 4.17 G/DL | ALKALINE PHOSPHATASE [1]: 374.5 u/L | ASPARTATE AMINOTRANSFERASE [1]: 89.5 u/L | BLOOD UREA NITROGEN [1]: 16.33 mg/dL | CARBON DIOXIDE [1]: 29.17 mmol/L | CHLORIDE [1]: 97.67 MEQ/L | CHOLESTEROL [1]: 77 mg/dL | CREATINE PHOSPHOKINASE [1]: 464.83 u/L | CREATININE [1]: 0.14 mg/dL | GLUCOSE [1]: 164 mg/dL | LACTATE DEHYDROGENASE [1]: 155.5 u/L | LIPASE [1]: 9.17 u/L | PHOSPHORUS [1]: 12.4 mg/dL | POTASSIUM [1]: 6.91 MEQ/L | SODIUM [1]: 141.47 MEQ/L | TOTAL BILIRUBIN [1]: 0.2 mg/dL | TOTAL PROTEIN [1]: 5.95 G/DL | URIC ACID [1]: 1.72 mg/dL | ABSOLUTE BASOPHIL [2]: 0 CELLS/uL | ABSOLUTE EOSINOPHIL [2]: 20.5 CELLS/uL | ABSOLUTE LYMPHOCYTE [2]: 13871.67 CELLS/uL | ABSOLUTE MONOCYTE [2]: 60.5 CELLS/uL | ABSOLUTE SEGMENTED NEUTROPHIL [2]: 980.67 CELLS/uL | BASOPHIL [2]: 0% | EOSINOPHIL [2]: 0.17% | ERYTHROCYTE COUNT [2]: 5.65 x10E6/uL | HEMATOCRIT [2]: 35.63% | HEMOGLOBIN [2]: 14.08 G/DL | LEUKOCYTE COUNT [2]: 14.93 x10E3/uL | LYMPHOCYTE [2]: 92.83% | MEAN CORPUSCULAR HEMOGLOBIN [2]: 24.97 pg | MEAN CORPUSCULAR HEMOGLOBIN CONCENTRATION [2]: 39.55 G/DL | MEAN CORPUSCULAR VOLUME [2]: 63.13 fL | MONOCYTE [2]: 0.33% | NEUTROPHIL [2]: 6.67% | NUCLEATED RED BLOOD CELLS [2]: 0 /100WBC | PLATELET COUNT [2]: 1248.17 x10E3/uL | ALANINE AMINOTRANSFERASE [2]: 45.17 u/L | ALBUMIN [2]: 4.27 G/DL | ALKALINE PHOSPHATASE [2]: 405.67 u/L | ASPARTATE AMINOTRANSFERASE [2]: 74.17 u/L | BLOOD UREA NITROGEN [2]: 15.5 mg/dL | CARBON DIOXIDE [2]: 30.17 mmol/L | CHLORIDE [2]: 100.67 MEQ/L | CHOLESTEROL [2]: 57 mg/dL | CREATINE PHOSPHOKINASE [2]: 239.5 u/L | CREATININE [2]: 0.17 mg/dL | GLUCOSE [2]: 165.67 mg/dL | LACTATE DEHYDROGENASE [2]: 90.5 u/L | LIPASE [2]: 8.83 u/L | PHOSPHORUS [2]: 12.32 mg/dL | POTASSIUM [2]: 7.03 MEQ/L | SODIUM [2]: 142.65 MEQ/L | TOTAL BILIRUBIN [2]: 0.18 mg/dL | TOTAL PROTEIN [2]: 6.03 G/DL | URIC ACID [2]: 1.98 mg/dL | ABSOLUTE BASOPHIL [3]: 0 CELLS/uL | ABSOLUTE EOSINOPHIL [3]: 0 CELLS/uL | ABSOLUTE LYMPHOCYTE [3]: 12859.33 CELLS/uL | ABSOLUTE MONOCYTE [3]: 198 CELLS/uL | ABSOLUTE SEGMENTED NEUTROPHIL [3]: 1176 CELLS/uL | BASOPHIL [3]: 0% | EOSINOPHIL [3]: 0% | ERYTHROCYTE COUNT [3]: 5.25 x10E6/uL | HEMATOCRIT [3]: 33.97% | HEMOGLOBIN [3]: 14.13 G/DL | LEUKOCYTE COUNT [3]: 14.23 x10E3/uL | LYMPHOCYTE [3]: 90% | MEAN CORPUSCULAR HEMOGLOBIN [3]: 25.77 pg | MEAN CORPUSCULAR HEMOGLOBIN CONCENTRATION [3]: 39.67 G/DL | MEAN CORPUSCULAR VOLUME [3]: 64.9 fL | MONOCYTE [3]: 1.33% | NEUTROPHIL [3]: 8.67% | NUCLEATED RED BLOOD CELLS [3]: 0 /100WBC | PLATELET COUNT [3]: 1306 x10E3/uL | ALANINE AMINOTRANSFERASE [3]: 53 u/L | ALBUMIN [3]: 4.17 G/DL | ALKALINE PHOSPHATASE [3]: 441 u/L | ASPARTATE AMINOTRANSFERASE [3]: 83.33 u/L | BLOOD UREA NITROGEN [3]: 16.67 mg/dL | CARBON DIOXIDE [3]: 27.67 mmol/L | CHLORIDE [3]: 98 MEQ/L | CHOLESTEROL [3]: 75.33 mg/dL | CREATINE PHOSPHOKINASE [3]: 360 u/L | CREATININE [3]: 0.1 mg/dL | GLUCOSE [3]: 146 mg/dL | LACTATE DEHYDROGENASE [3]: 180.33 u/L | LIPASE [3]: 9.33 u/L | PHOSPHORUS [3]: 13.93 mg/dL | POTASSIUM [3]: 6.77 MEQ/L | SODIUM [3]: 143.3 MEQ/L | TOTAL BILIRUBIN [3]: 0.23 mg/dL | TOTAL PROTEIN [3]: 5.9 G/DL | URIC ACID [3]: 1.47 mg/dL | ABSOLUTE BASOPHIL [4]: 0 CELLS/uL | ABSOLUTE EOSINOPHIL [4]: 0 CELLS/uL | ABSOLUTE LYMPHOCYTE [4]: 10085.67 CELLS/uL | ABSOLUTE MONOCYTE [4]: 133.67 CELLS/uL | ABSOLUTE SEGMENTED NEUTROPHIL [4]: 980.67 CELLS/uL | BASOPHIL [4]: 0% | EOSINOPHIL [4]: 0% | ERYTHROCYTE COUNT [4]: 5.03 x10E6/uL | HEMATOCRIT [4]: 33.2% | HEMOGLOBIN [4]: 13.3 G/DL | LEUKOCYTE COUNT [4]: 11.2 x10E3/uL | LYMPHOCYTE [4]: 91.33% | MEAN CORPUSCULAR HEMOGLOBIN [4]: 26.47 pg | MEAN CORPUSCULAR HEMOGLOBIN CONCENTRATION [4]: 40.07 G/DL | MEAN CORPUSCULAR VOLUME [4]: 66.07 fL | MONOCYTE [4]: 1% | NEUTROPHIL [4]: 7.67% | NUCLEATED RED BLOOD CELLS [4]: 0 /100WBC | PLATELET COUNT [4]: 833 x10E3/uL | ALANINE AMINOTRANSFERASE [4]: 55.67 u/L | ALBUMIN [4]: 4.23 G/DL | ALKALINE PHOSPHATASE [4]: 308.33 u/L | ASPARTATE AMINOTRANSFERASE [4]: 81 u/L | BLOOD UREA NITROGEN [4]: 17.33 mg/dL | CARBON DIOXIDE [4]: 26.33 mmol/L | CHLORIDE [4]: 102.33 MEQ/L | CHOLESTEROL [4]: 64 mg/dL | CREATINE PHOSPHOKINASE [4]: 354.67 u/L | CREATININE [4]: 0.13 mg/dL | GLUCOSE [4]: 152.33 mg/dL | LACTATE DEHYDROGENASE [4]: 110.67 u/L | LIPASE [4]: 12 u/L | PHOSPHORUS [4]: 12.5 mg/dL | POTASSIUM [4]: 6.61 MEQ/L | SODIUM [4]: 143.1 MEQ/L | TOTAL BILIRUBIN [4]: 0.2 mg/dL | TOTAL PROTEIN [4]: 5.97 G/DL | URIC ACID [4]: 2.27 mg/dL
